One may read the IC50 as the point on the concentration scale where inhibition reaches its midpoint.

From US20250154171A1, “RAS INHIBITORS” (Revolution Medicines, Inc., priority 2023, published 2025) come the findings set out here.

Read-outs that look alike come from different tables or passages of the source. A value given as a limit tells only on which side of the number the result lay.

The conditions of data set [1]: ester bond, 18-membered ring, PyBOP/HOBt/DIEA.
For the next data set, the system named is K-RasG12V (Capan-1). Briefly: Potency assay: cellular pERK (AlphaLISA SureFire or In-Cell Western), Capan-1. The data set is classed as cell-based. Conditions: Homo sapiens; Capan-1 cells; 4 hours; in at least one of the assays (AlphaLISA or In-Cell Western); read-out: pERK IC50 with respect to K-RasG12V (Capan-1). The source says:
The purpose of this assay is to measure the ability of test compounds to inhibit K-Ras in cells. Activated K-Ras induces increased phosphorylation of ERK at Threonine 202 and Tyrosine 204 (PERK). This procedure measures a decrease in cellular pERK in response to test compounds. The procedure described below in Capan-1 cells is applicable to K-RasG12V.
Note: This protocol may be executed substituting other cell lines to characterize inhibitors of other RAS variants, including, for example, NCI-H358 (K-Ras G12C), AsPC-1 (K-Ras G12D), Capan-1 (K-Ras G12V), or NCI-H1355 (K-Ras G13C).
Cells are grown and maintained using media and procedures recommended by the ATCC. On the day prior to compound addition, cells are plated in 384-well cell culture plates (40 μl/well) and grown overnight in a 37° C., 5% CO2 incubator. Test compounds are prepared in 10, 3-fold dilutions in DMSO, with a high concentration of 10 mM. On the day of assay, 40 nL of test compound is added to each well of cell culture plate using an Echo550 liquid handler (LabCyte®). Concentrations of test compound are tested in duplicate. After compound addition, cells are incubated 4 hours at 37° C., 5% CO2. Following incubation, culture medium is removed, and cells are washed once with phosphate buffered saline.
In some experiments, cellular pERK level is determined using the AlphaLISA SureFire Ultra p-ERK1/2 Assay Kit (PerkinElmer). Cells are lysed in 25 μL lysis buffer, with shaking at 600 RPM at room temperature. Lysate (10 μL) is transferred to a 384-well Opti-plate (PerkinElmer) and 5 μL acceptor mix is added. After a 2-hour incubation in the dark, 5 μL donor mix is added, plate is sealed, and incubated 2 hours at room temperature. Signal is read on an Envision plate reader (PerkinElmer) using standard AlphaLISA settings. Analysis of raw data is carried out in Excel (Microsoft) and Prism (GraphPad). Signal is plotted vs. the decadal logarithm of compound concentration, and IC50 is determined by fitting a 4-parameter sigmoidal concentration response model.
In other experiments, cellular pERK is determined by In-Cell Western. Following compound treatment, cells are washed twice with 200 μL tris buffered saline (TBS) and fixed for 15 minutes with 150 μL 4% paraformaldehyde in TBS. Fixed cells are washed 4 times for 5 minutes with TBS containing 0.1% Triton X-100 (TBST) and then blocked with 100 μL Odyssey blocking buffer (LI-COR) for 60 minutes at room temperature. Primary antibody (PERK, CST-4370, Cell Signaling Technology) is diluted 1:200 in blocking buffer, and 50 μL is added to each well and incubated overnight at 4° C. Cells are washed 4 times for 5 minutes with TBST. Secondary antibody (IR-800CW rabbit, LI-COR, diluted 1:800) and DNA stain DRAQ5 (LI-COR, diluted 1:2000) are added and incubated 1-2 hours at room temperature. Cells are washed 4 times for 5 minutes with TBST. Plates are scanned on a Li—COR Odyssey CLx Imager. Analysis of raw data is carried out in Excel (Microsoft) and Prism (GraphPad). Signal is plotted vs. the decadal logarithm of compound concentration, and IC50 is determined by fitting a 4-parameter sigmoidal concentration response model.

As to `CO[C@@H](C)c1ncc(C2CN(C3CC3)C2)cc1-c1c2c3cc(ccc3n1CCOC1CCOCC1)-c1csc(n1)[C@@H](N1CC3(COC3)C1)[C@H](NC(=O)[C@@H]1OC[C@@H]1C)C(=O)N1CCC[C@H](N1)C(=O)OCC(C)(C)C2`, in data set [1] (from CO[C@@H](C)c1ncc(C2CN(C3CC3)C2)cc1-c1c(CC(C)(C)CO)c2cc(-c3csc([C@H]([C@H](NC(=O)[C@@H]4OC[C@@H]4C)C(=O)N4CCC[C@@H](C(=O)O)N4)N4CC5(COC5)C4)n3)ccc2n1CCOC1CCOCC1, MeCN, 1.44 mM, 35.0 °C, 3.0 h), the ring closure, yield after HPLC turned out to be 20%.
On to `CO[C@@H](C)c1ncc(N2CCN(C3CC3)CC2)cc1-c1c2c3cc(ccc3n1CCOC1CCOCC1)-c1csc(n1)[C@@H](N1CC3(COC3)C1)[C@H](NC(=O)[C@@H]1[C@@H](C)[C@H]1C(=O)N1CCN(C)CC1)C(=O)N1CCC[C@H](N1)C(=O)OCC(C)(C)C2` (atropisomer, axis not shown) [Example A1083], for which, in the data set on K-RasG12V (Capan-1), the IC50 was below 650 nM.
`CO[C@@H](C)c1ncccc1-c1c2c3cc(ccc3n1C1CC(C#N)C1)-c1coc(n1)[C@@H](N1CC3(COC3)C1)[C@H](NC(=O)OC(C)(C)C)C(=O)N1CCC[C@H](N1)C(=O)OCC(C)(C)C2` (some centres unmarked) came in with a ring closure, yield after HPLC in data set [1] (from CO[C@@H](C)c1ncccc1-c1c(CC(C)(C)CO)c2cc(-c3coc([C@H]([C@H](NC(=O)OC(C)(C)C)C(=O)N4CCC[C@@H](C(=O)O)N4)N4CC5(COC5)C4)n3)ccc2n1C1CC(C#N)C1, DMF, 12.5 mM, 25.0 °C, 2.0 h) of 27.4%.
`COC1CN([C@@H]2c3nc(cs3)-c3ccc4c(c3)c(c(-c3cccnc3[C@H](C)OC)n4C3CN(C4CC4)C3)CC(C)(C)COC(=O)[C@@H]3CCCN(N3)C(=O)[C@H]2NC(=O)OC(C)(C)C)C1` returned a ring closure, yield after HPLC in data set [1] (from COC1CN([C@H](c2nc(-c3ccc4c(c3)c(CC(C)(C)CO)c(-c3cccnc3[C@H](C)OC)n4C3CN(C4CC4)C3)cs2)[C@H](NC(=O)OC(C)(C)C)C(=O)N2CCC[C@@H](C(=O)O)N2)C1, DMF, 11.2 mM, 25.0 °C, 5.0 h) of 40.2%.
In the case of `CO[C@@H](C)c1ncccc1-c1c2c3cc(ccc3n1C1CN(C3CC3)C1)-c1csc(n1)[C@@H](N1CC3(CCN3C3COC3)C1)[C@H](NC(=O)[C@@H]1[C@@H](C)[C@H]1c1ccncn1)C(=O)N1CCC[C@H](N1)C(=O)OCC(C)(C)C2` (atropisomer, axis not shown) [Example A1076], the IC50 with K-RasG12V (Capan-1) was below 650 nM.
